According to patent publication US4782074A (priority 1987, dated 1988):

How the values were obtained:
Format in all cases: in vivo
[1] = tested on: Alternaria solani conidia; assay: Tomato Early Blight control (Example D); details: 288 h, tomato seedlings, Bonny Best, inoculated 1 day after spray, relative to untreated check plants, read-out: % Control TEB
Procedure: Compounds of the invention were tested for the control of the Tomato Early Blight organism Alternaria solani conidia. Tomato (variety Bonny Best) seedlings of 6- to 7-weeks old were used. The tomato plants were sprayed with a 250-ppm solution of the test compound in an acetone-and-water solution containing a small amount of a nonionic emulsifier. The sprayed plants were inoculated 1 day later with the organism, placed in the environmental chamber and incubated at 66° F. to 68° F. and 100% relative humidity for 24 hours. Following the incubation, the plants were maintained in a greenhouse for about 12 days. Percent disease control was based on the percent disease development on untreated check plants.

Uromyces phaseoli tipica = assay: Leaf Rust / Bean Rust control (Example F); details: 336 h, pinto bean plants, rated after about 14 days, relative to untreated check plants, read-out: % Control BR
Procedure: The Leaf Rust test was made using pinto beans. The pathogen was Uromyces phaseoli tipica. The pinto bean plants were sprayed with a 250-ppm solution of the test compound in an acetone-water mixture containing a nonionic emulsifier. The treated plants were inoculated thereafter with the pathogen and then incubated in an environmental chamber for approximately 20 hours at 100% relative humidity and a temperature of 68° F. to 70° F. The plants were then removed from the chamber, allowed to dry, and then maintained in a greenhouse at a 60% to 80% relative humidity. The rate of infection on the leaves was made after about 14 days. The percent disease control provided by a given test compound was based on the percent disease reduction relative to untreated check plants.

Septoria apii = assay: whole plant or invertebrate; details: 336 h, read-out: % Control CLB
Erysiphe polygoni = assay: Bean Powdery Mildew control (Example A); details: 240 h, seedling bean plants, inoculated 1 day after spray, 10 days, relative to untreated check plants, read-out: % Control BPM
Procedure: The compounds of the invention were tested for the control of the Bean Powdery Mildew organism Erysiphe polygoni. Seedling bean plants were sprayed with a 250-ppm solution of the test compound in acetone, water and a nonionic emusifier. The sprayed plants were then inoculated 1 day later with the organism. The plants were maintained for 10 days at temperatures of 68° F. at night with daytime temperatures of 72° F. to 80° F.; relative humidity was maintained at 40% to 60%. The percent disease control provided by a given test compound was based on the percent disease reduction relative to the untreated check plants.

Phytophthora infestans = assay: whole plant or invertebrate; details: in Solanum lycopersicum, 168 h, read-out: % Control TLB
Piricularia oryzae = assay: whole plant or invertebrate; details: Pyricularia oryzae, read-out: % Control RB
Plasmopara viticola = assay: Grape Downy Mildew control (Example E); details: detached grape leaves, cultivar Emperor, relative to untreated check plants, read-out: % Control GDM
Procedure: The compounds of the invention were tested for the control of the Grape Downy Mildew organism Plasmopara viticola. Detached leaves, between 70 mm and 85 mm in diameter, 7-week-old Vitis vinifera cultivar Emperor grape seedlings were used as hosts. The leaves were sprayed with a 250-ppm solution of the test compound in acetone. The sprayed leaves were dried, inoculated with a spore suspension of the organism, placed in a humid environmental chamber and incubated at 66° F. to 68° F. and about 100% relative humidity. After incubation for 2 days, the plants were then held in a greenhouse 7 to 9 days; then the amount of disease control was determined. The percent disease control provided by a given test compound was based on the percent disease reduction relative to untreated check plants.

CCCN(CCCOc1c(Cl)cc(Cl)cc1Cl)C(=O)c1cccnc1 [Compound 19]
pest or weed control at 250 ppm [1]: 0% | pest or weed control at 250 ppm (Uromyces phaseoli tipica): 0% | pest or weed control at 250 ppm (Septoria apii): 38% | pest or weed control at 250 ppm (Erysiphe polygoni): 70% | pest or weed control at 250 ppm (Phytophthora infestans): 10% | pest or weed control at 625 ppm (Piricularia oryzae): 96% | pest or weed control at 250 ppm (Plasmopara viticola): 30%

CCCN(CCOc1c(Cl)cc(Cl)cc1Cl)C(=O)c1cnccn1 [Compound 3, N-(n-propyl), N-(2-pyrazinylcarbonyl)ethanolamine 2,4,6-trichlorophenylether]
pest or weed control at 250 ppm [1]: 94% | pest or weed control at 250 ppm (Uromyces phaseoli tipica): 19% | pest or weed control at 250 ppm (Septoria apii): 62% | pest or weed control at 250 ppm (Erysiphe polygoni): 100% | pest or weed control at 250 ppm (Phytophthora infestans): 0% | pest or weed control at 625 ppm (Piricularia oryzae): 75% | pest or weed control at 250 ppm (Plasmopara viticola): 13%

CCN(CCOc1c(Cl)cc(Cl)cc1Cl)C(=O)c1cnccn1 [Compound 36]
pest or weed control at 250 ppm [1]: 0% | pest or weed control at 250 ppm (Uromyces phaseoli tipica): 0% | pest or weed control at 250 ppm (Septoria apii): 50% | pest or weed control at 250 ppm (Erysiphe polygoni): 75% | pest or weed control at 250 ppm (Phytophthora infestans): 0% | pest or weed control at 625 ppm (Piricularia oryzae): 0% | pest or weed control at 250 ppm (Plasmopara viticola): 45%

C=CCN(CCOc1c(Cl)cc(Cl)cc1Cl)C(=O)c1cccnc1 [Compound 32, N-allyl, N-(3-pyridylcarbonyl)ethanolamine 2,4,6-trichlorophenylether]
pest or weed control at 250 ppm [1]: 0% | pest or weed control at 250 ppm (Uromyces phaseoli tipica): 0% | pest or weed control at 250 ppm (Septoria apii): 0% | pest or weed control at 250 ppm (Erysiphe polygoni): 4% | pest or weed control at 250 ppm (Phytophthora infestans): 0% | pest or weed control at 625 ppm (Piricularia oryzae): 0% | pest or weed control at 250 ppm (Plasmopara viticola): 41%

CCCN(CCCc1c(Cl)cccc1Cl)C(=O)c1cccnc1 [Compound 22, N-[3-(2,6-dichlorophenyl)propyl], N-(n-propyl)nicotine amide]
pest or weed control at 250 ppm [1]: 88% | pest or weed control at 250 ppm (Uromyces phaseoli tipica): 0% | pest or weed control at 250 ppm (Septoria apii): 38% | pest or weed control at 250 ppm (Erysiphe polygoni): 44% | pest or weed control at 250 ppm (Phytophthora infestans): 0% | pest or weed control at 625 ppm (Piricularia oryzae): 0% | pest or weed control at 250 ppm (Plasmopara viticola): 7%

CCCN(CCOc1c(Cl)cc(Cl)cc1Cl)C(=O)c1cccnc1 [Compound 1, N-(n-propyl), N-(3-pyridylcarbonyl)ethanolamine 2,4,6-trichlorophenylether]
pest or weed control at 250 ppm [1]: 96% | pest or weed control at 250 ppm (Uromyces phaseoli tipica): 0% | pest or weed control at 250 ppm (Septoria apii): 46% | pest or weed control at 250 ppm (Erysiphe polygoni): 100% | pest or weed control at 250 ppm (Phytophthora infestans): 0% | pest or weed control at 625 ppm (Piricularia oryzae): 86% | pest or weed control at 250 ppm (Plasmopara viticola): 50%

CCCN(CCOc1c(C)cc(C)cc1C)C(=O)c1cnccn1 [Compound 15]
pest or weed control at 250 ppm [1]: 67% | pest or weed control at 250 ppm (Uromyces phaseoli tipica): 0% | pest or weed control at 250 ppm (Septoria apii): 15% | pest or weed control at 250 ppm (Erysiphe polygoni): 44% | pest or weed control at 250 ppm (Phytophthora infestans): 0% | pest or weed control at 625 ppm (Piricularia oryzae): 29% | pest or weed control at 250 ppm (Plasmopara viticola): 0%

CCCN(CCOc1c(Cl)cc(Cl)cc1Cl)C(=O)c1cncnc1 [Compound 2, N-(n-propyl), N-(5-pyrimidylcarbonyl)ethanolamine 2,4,6-trichlorophenylether]
pest or weed control at 250 ppm [1]: 98% | pest or weed control at 250 ppm (Uromyces phaseoli tipica): 0% | pest or weed control at 250 ppm (Septoria apii): 93% | pest or weed control at 250 ppm (Erysiphe polygoni): 100% | pest or weed control at 250 ppm (Phytophthora infestans): 0% | pest or weed control at 625 ppm (Piricularia oryzae): 38% | pest or weed control at 250 ppm (Plasmopara viticola): 3%

CCCN(CCOc1c(Cl)cc(Cl)cc1Cl)C(=O)c1cncn1C [Compound 12, N-(n-propyl), N-(1-methyl-5-imidazolylcarbonyl)ethanolamine 2,4,6-trichlorophenylether]
pest or weed control at 250 ppm [1]: 36% | pest or weed control at 250 ppm (Uromyces phaseoli tipica): 29% | pest or weed control at 250 ppm (Septoria apii): 45% | pest or weed control at 250 ppm (Erysiphe polygoni): 100% | pest or weed control at 250 ppm (Phytophthora infestans): 18% | pest or weed control at 625 ppm (Piricularia oryzae): 0% | pest or weed control at 250 ppm (Plasmopara viticola): 19%

CCCN(CCOc1c(Cl)cc(Cl)cc1Cl)C(=O)c1ccncc1 [Compound 10]
pest or weed control at 250 ppm [1]: 32% | pest or weed control at 250 ppm (Uromyces phaseoli tipica): 29% | pest or weed control at 250 ppm (Septoria apii): 0% | pest or weed control at 250 ppm (Erysiphe polygoni): 0% | pest or weed control at 250 ppm (Phytophthora infestans): 11% | pest or weed control at 625 ppm (Piricularia oryzae): 0% | pest or weed control at 250 ppm (Plasmopara viticola): 9%

CCCN(CCOc1c(Cl)cc(Cl)cc1Cl)C(=S)c1cccnc1 [Compound 17, N-(n-propyl), N-(3-pyridylthiocarbonyl)ethanolamine 2,4,6-trichlorophenylether]
pest or weed control at 250 ppm [1]: 87% | pest or weed control at 250 ppm (Uromyces phaseoli tipica): 0% | pest or weed control at 250 ppm (Septoria apii): 62% | pest or weed control at 250 ppm (Erysiphe polygoni): 100% | pest or weed control at 250 ppm (Phytophthora infestans): 0% | pest or weed control at 625 ppm (Piricularia oryzae): 100% | pest or weed control at 250 ppm (Plasmopara viticola): 4%

CCCN(CCOc1ccc(Cl)cc1Cl)C(=O)c1cccnc1 [Compound 8]
pest or weed control at 250 ppm [1]: 40% | pest or weed control at 250 ppm (Uromyces phaseoli tipica): 3% | pest or weed control at 250 ppm (Septoria apii): 45% | pest or weed control at 250 ppm (Erysiphe polygoni): 50% | pest or weed control at 250 ppm (Phytophthora infestans): 0% | pest or weed control at 625 ppm (Piricularia oryzae): 0% | pest or weed control at 250 ppm (Plasmopara viticola): 0%

CCCN(CCCc1ccc(Cl)cc1Cl)C(=O)c1cccnc1 [Compound 27]
pest or weed control at 250 ppm [1]: 57% | pest or weed control at 250 ppm (Uromyces phaseoli tipica): 3% | pest or weed control at 250 ppm (Septoria apii): 35% | pest or weed control at 250 ppm (Erysiphe polygoni): 82% | pest or weed control at 250 ppm (Phytophthora infestans): 0% | pest or weed control at 625 ppm (Piricularia oryzae): 71% | pest or weed control at 250 ppm (Plasmopara viticola): 0%

CCCN(CCOc1ccc(Cl)cc1Cl)C(=O)c1cnccn1 [Compound 7]
pest or weed control at 250 ppm [1]: 0% | pest or weed control at 250 ppm (Uromyces phaseoli tipica): 3% | pest or weed control at 250 ppm (Septoria apii): 15% | pest or weed control at 250 ppm (Erysiphe polygoni): 21% | pest or weed control at 250 ppm (Phytophthora infestans): 0% | pest or weed control at 625 ppm (Piricularia oryzae): 0% | pest or weed control at 250 ppm (Plasmopara viticola): 13%

CCCN(CCOc1c(Cl)cccc1Cl)C(=O)c1cncnc1 [Compound 13]
pest or weed control at 250 ppm [1]: 97% | pest or weed control at 250 ppm (Uromyces phaseoli tipica): 0% | pest or weed control at 250 ppm (Septoria apii): 80% | pest or weed control at 250 ppm (Erysiphe polygoni): 81% | pest or weed control at 250 ppm (Phytophthora infestans): 4% | pest or weed control at 250 ppm (Plasmopara viticola): 10%

CCCN(CCOc1ccc(C(C)(C)C)cc1)C(=O)c1cnccn1 [Compound 5]
pest or weed control at 250 ppm [1]: 36% | pest or weed control at 250 ppm (Uromyces phaseoli tipica): 0% | pest or weed control at 250 ppm (Septoria apii): 17% | pest or weed control at 250 ppm (Erysiphe polygoni): 94% | pest or weed control at 250 ppm (Phytophthora infestans): 0% | pest or weed control at 250 ppm (Plasmopara viticola): 28%

CCCN(Cc1c(Cl)cccc1Cl)C(=O)c1cccnc1 [Compound 29]
pest or weed control at 250 ppm [1]: 50% | pest or weed control at 250 ppm (Uromyces phaseoli tipica): 0% | pest or weed control at 250 ppm (Septoria apii): 0% | pest or weed control at 250 ppm (Erysiphe polygoni): 48% | pest or weed control at 250 ppm (Phytophthora infestans): 0% | pest or weed control at 250 ppm (Plasmopara viticola): 27%

CCCN(CCOc1c(Cl)cc(Cl)cc1Cl)C(=S)c1cnccn1 [Compound 18]
pest or weed control at 250 ppm (Uromyces phaseoli tipica): 0% | pest or weed control at 250 ppm (Septoria apii): 85% | pest or weed control at 250 ppm (Erysiphe polygoni): 54% | pest or weed control at 250 ppm (Phytophthora infestans): 0% | pest or weed control at 250 ppm (Plasmopara viticola): 43%

CCCN(CCOc1ccc(C(C)(C)C)cc1)C(=O)c1cccnc1 [Compound 6]
pest or weed control at 250 ppm [1]: 50% | pest or weed control at 250 ppm (Uromyces phaseoli tipica): 0% | pest or weed control at 250 ppm (Septoria apii): 0% | pest or weed control at 250 ppm (Erysiphe polygoni): 98% | pest or weed control at 250 ppm (Phytophthora infestans): 10% | pest or weed control at 250 ppm (Plasmopara viticola): 0%

CCCN(C(=O)c1cnccn1)C(C)COc1c(Cl)cc(Cl)cc1Cl (stereo not shown) [Compound 21, N-(n-propyl), N-(2-pyrazinylcarbonyl)propanol-2-amine 2,4,6-trichlorophenylether]
pest or weed control at 250 ppm (Uromyces phaseoli tipica): 23% | pest or weed control at 250 ppm (Septoria apii): 0% | pest or weed control at 250 ppm (Erysiphe polygoni): 71% | pest or weed control at 250 ppm (Phytophthora infestans): 0% | pest or weed control at 625 ppm (Piricularia oryzae): 0% | pest or weed control at 250 ppm (Plasmopara viticola): 67%

CCCN(C(=O)c1cccnc1)C(C)COc1c(Cl)cc(Cl)cc1Cl (stereo not shown) [Compound 20, N-(n-propyl), N-(3-pyridylcarbonyl)propanol-2-amine 2,4,6-trichlorophenylether]
pest or weed control at 250 ppm (Uromyces phaseoli tipica): 23% | pest or weed control at 250 ppm (Septoria apii): 0% | pest or weed control at 250 ppm (Erysiphe polygoni): 93% | pest or weed control at 250 ppm (Phytophthora infestans): 0% | pest or weed control at 625 ppm (Piricularia oryzae): 0% | pest or weed control at 250 ppm (Plasmopara viticola): 7%
